Columns and labels:
Format in all cases: cell-based
[1] = system: Panc-1; assay: MTT cell viability assay
Method: 1.1. ZPP and Y29794 induces cytotoxicity to cancer cells by MTT analysis of cell viability. Cells were placed in 96-well plates (3×10^3 cells/well) in octuplicate. The cells were then treated with vehicle or different doses of ZPP for 4 days. Cells were then loaded with 1.2 mM MTT (4,5-Dimethylthiazol-2-vn-2,5-diphenvltetrazolium bromide, a yellow tetrazole) in phenol red-free medium for 4 hours. The cells were then lysed in 10% SDS/0.01M HCL. MTT absorbance (570 nm spectrum) was measured by a microplate reader. The relative absorbance is normalized to the control (vehicle-treated) to indicate relative cell viability. ZPP was purchased from Biomol (Plymouth Meeting, Pa., USA). MTT was purchased from Sigma-Aldrich. Panc-1 and Capan-1 pancreatic cancer cell line, MCF7 and T47D breast cancer cell lines, A549 and HI 703 lung cancer Cell lines were purchased from American Type Culture Collection (ATCC, USA) preparation of pancreatic cancer cell line PK-9 have been disclosed, e.g., Kobari M et al, (1986) Tohoku J Exp Med. 150: 231-248; Etoh T et al, (2003) Clin Cancer Res 9; 1218; Arafat H. et al, (2011) Surgery 150 (2): 306-315. Cells were grown in Dulbecco's Modified. Eagle's (DMEM) medium (Invitrogen, Carlsbad, Calif.) containing 10% fetal bovine serum (FBS) (Hyclone, purchased from Thermo Fisher Scientific, Inc). […] […] Y29794 oxalate was purchased from Tocris Biosciences (Bristol, UK).

[2] = system: IRS-1; assay: Immunoblot analysis of IRS-1 (protein, phosphorylation, half-life, p85 coimmunoprecipitation)
[3] = system: mTOR (S2448) phosphorylation; assay: Immunoblot analysis of mTOR phosphorylation; conditions: Panc-1; rapamycin, or Y29794 1 μM (FIG. 19D)
Method: Mouse anti-PRCP antibody was purchased from Abcam (Cambridge, Mass., USA). Goat anti-PREP antibody was purchased from R&D Systems (Minneapolis, Minn., USA). Mouse anti-R-actin antibody antibodies was from Santa Cruz Biotechnology (Santa Cruz, Calif., USA). Panc-1 pancreatic cancer cells and MCF7 breast cancer cells were cultured to 80% confluence, cells were rinsed three times with pre-cooled PBS, 500 μl of lysis buffer (150 mmol/L Nacl, 1% Triton-x-100, 50 mmol/l TrispH8.0, 1 mmol/L PMSF, 1 ug/L aprotinin, 1 ug/L leupeptin, 1 ug/L peptain) was added to the cells. Cells were scraped and transferred to a centrifuge tube with a pipette. The lysates were spun in a microcentrifuge at maximal speed for 10 minutes at 4° C. to get rid of the insoluble fraction. Protein concentration was determined by Bradford assay. For immunoprecipitation: 2-5 ug protein-specific antibodies were added to 250-500 ug of lysates in a tube and incubated on an ordital shaker 4° C. for 2-4 hours with moderate shaking, then 20 ul Protein G beads (Santa Cruz Biotechnology (Santa Cruz, Calif., USA.) were added and the mixture was incubated with moderate shaking for another hour. After washing the beads in lysis buffer five times, the immunoprecipitates were boiled in 2× Laemmli sample buffer (50 mmoL/L Tris-HCL (pH8.0), 100 mmoL/L DTT, 2% SDS, 0.1% bromophenol blue, 10% glycerol) for five minutes. The proteins were separated by conventional SDS-polyacrylamide gel electrophoresis (SDS-PAGE) electrophoresis and transferred to Amersham Hybond-P PVDF membrane (GE Company, Pittsburgh, Pa., USA). For immunoblot, the membrane was blocked in 2% BSA in TBST buffer (Tris 1.21 g+NaCl 5.84 g+800 ml H2O adjusted to pH 8.0 with HCl) for one hour and then incubated with primary antibodies in TBST at room temperature (22-25° C.) for 2 hours. After washing three times with TBST, the membrane was incubated with HRP-conjugated secondary antibodies for 0.5 hours at room temperature. […]

[4] = system: Capan-1; assay: MTT cell viability assay; conditions: Capan-1, different doses, 4 days
Method: (§1) 1.1. ZPP and Y29794 induces cytotoxicity to cancer cells by MTT analysis of cell viability. Cells were placed in 96-well plates (3×10^3 cells/well) in octuplicate. The cells were then treated with vehicle or different doses of ZPP for 4 days. Cells were then loaded with 1.2 mM MTT (4,5-Dimethylthiazol-2-vn-2,5-diphenvltetrazolium bromide, a yellow tetrazole) in phenol red-free medium for 4 hours. The cells were then lysed in 10% SDS/0.01M HCL. MTT absorbance (570 nm spectrum) was measured by a microplate reader. The relative absorbance is normalized to the control (vehicle-treated) to indicate relative cell viability. ZPP was purchased from Biomol (Plymouth Meeting, Pa., USA). MTT was purchased from Sigma-Aldrich. Panc-1 and Capan-1 pancreatic cancer cell line, MCF7 and T47D breast cancer cell lines, A549 and HI 703 lung cancer Cell lines were purchased from American Type Culture Collection (ATCC, USA) preparation of pancreatic cancer cell line PK-9 have been disclosed, e.g., Kobari M et al, (1986) Tohoku J Exp Med. 150: 231-248; Etoh T et al, (2003) Clin Cancer Res 9; 1218; Arafat H. et al, (2011) Surgery 150 (2): 306-315. Cells were grown in Dulbecco's Modified. Eagle's (DMEM) medium (Invitrogen, Carlsbad, Calif.) containing 10% fetal bovine serum (FBS) (Hyclone, purchased from Thermo Fisher Scientific, Inc). […] In similar experiments, the cells were treated with different doses of Y29794 for 4 days and analyzed for MTT absorbance. Y29794 oxalate was purchased from Tocris Biosciences (Bristol, UK).

[5] = system: AsPC-1; assay: MTT cell viability assay; conditions: AsPC-1, different doses, 4 days
Method: as §1

[6] = system: PK-9; assay: MTT cell viability assay; conditions: PK-9, different doses, 4 days
Method: as §1

[7] = system: A549; assay: MTT cell viability assay; conditions: A549, different doses, 4 days
Method: as §1

[8] = system: H1703; assay: MTT cell viability assay; conditions: H1703, different doses, 4 days
Method: as §1

[9] = system: TD47; assay: MTT cell viability assay; conditions: TD47, different doses, 4 days
Method: as §1

[10] = system: MCF7; assay: MTT cell viability assay; conditions: MCF7, different doses, 4 days
Method: as §1

[11] = system: MDAMB231; assay: MTT cell viability assay; conditions: MDAMB231, different doses, 4 days
Method: as §1

Structure (SMILES): CC(C)c1ccc(C(=O)c2cccs2)c(SCCCCCCCCN(C)C)n1 [Y29794, [2-[8-(dimethylamino)octylsulfanyl]-6-propan-2-ylpyridin-3-yl]-thiophen-2-ylmethanone]
- MTT absorbance (relative cell viability) ([1]; Panc-1, different doses, 4 days): dose-dependent cytotoxicity
- cell viability (MTT), combination ([1]; Panc-1, various concentration of Y29794 with 0.5 nM rapamycin, three days (FIG. 16A legend)): synergistic reduction
- cell viability (MTT), combination ([1]; Panc-1, various concentration of rapamycin with 25 nM Y29794, three days (FIG. 16B legend)): synergistic reduction
- IRS-1 protein ([2]; Capan-1, Y29794 1 μM (FIG. 19A)): reduces
- IRS-1 protein ([2]; PK-9, Y29794 1 μM (FIG. 19A)): reduces
- mTOR (S2448) phosphorylation [3]: without affecting
- MTT absorbance (relative cell viability) [4]: dose-dependent cytotoxicity
- MTT absorbance (relative cell viability) [5]: dose-dependent cytotoxicity
- MTT absorbance (relative cell viability) [6]: dose-dependent cytotoxicity
- MTT absorbance (relative cell viability) [7]: dose-dependent cytotoxicity
- MTT absorbance (relative cell viability) [8]: dose-dependent cytotoxicity
- MTT absorbance (relative cell viability) [9]: dose-dependent cytotoxicity
- MTT absorbance (relative cell viability) [10]: dose-dependent cytotoxicity
- MTT absorbance (relative cell viability) [11]: dose-dependent cytotoxicity

— patent US9750728B2, “Method and pharmaceutical composition for inhibiting PI3K/AKT/mTOR signaling pathway” (TARGETED THERAPEUTICS, LLC, priority 2012, dated 2017)
